According to US8455495B2, “Pyridazino-pyridinone compounds and methods of use” (Amgen Inc., priority 2008, dated 2013):
Where two headings read alike, the source gives them in different places.

What was measured:
[1] = tested on: production of IL-1β, IL-6, and TNF-α by PBMC activated with LPS; assay: Lipopolysaccharide-activated PBMC cytokine production assay; format: cell-based; details: Homo sapiens, read-out: IC50 in PBMC cytokine production assay
Method: Lipopolysaccharide-Activated Pbmc Cytokine Production Assay
Test compounds were evaluated in vitro for the ability to inhibit the production of IL-1β, IL-6, and TNF-α by PBMC activated with bacterial lipopolysaccharide (LPS). Fresh leukocytes were obtained from a local blood bank, and peripheral blood mononuclear cells (PBMCs) were isolated by density gradient centrifugation on Ficol-Paque Plus (Pharmacia).
Preparation of Test Compound Stock Solutions
All reagents were prepared in RPMI 1640+10% v/v human AB serum+1× Pens/Strep/Glu (assay medium). Test compounds were dissolved in 100% DMSO and serially diluted in 96-well polypropylene round bottom micro titer plates (drug plate). Serial dilutions were then diluted 1:250 into assay medium to a 4× working concentration. Compound serial dilutions were half-log, 10 point titrations with a final starting concentration of 1 μM.
Treatment of Cells with Test Compounds and Activation with Lipopolysaccharide
LPS was prepared to a 4× concentration in assay medium. 100 μl of PBMC (1×10^6 cells/ml) were plated in a 96-well polystyrene flat bottom micro titer tissue culture plate and incubated with 50 μl of 4× compound serial dilution for 1 hour at 37° C., 5% CO2 in a tissue culture incubator. 50 μl 4×LPS or control was added and the plates were incubated at 37° C., 5% CO2 in a tissue culture incubator for 18 hours. The final DMSO concentration was 0.1%. The total volume was 200 μL. The final LPS concentration was 100 ng/mL. After 18 hours culture supernatants were removed and IL-1β, IL-6, and TNF-α presence in the supernatants was quantified using MSD ECL based technology.
20 μL of culture supernatant were added to MSD plates, and incubated for one hour at room temperature. 20 μL of detection antibody diluted in antibody diluent (1 μg/mL), and 110 μL of 2× Read Buffer P was added, and incubated for one hour at RT. Electrochemiluminescence was measured using the SECTOR HTS Imager (MSD, Gaithersburg, Md.).
Compound IC50 values were calculated as follows: The proportion of cytokine production in the presence of compound compared to the cytokine production in the presence of the DMSO vehicle alone (Hi control) was calculated using the formula: Percent Control (POC)=(compound−average Lo)/(average Hi−average Lo)*100.

recombinant human p38α = recombinant human p38α (Homo sapiens, UniProt Q16539); assay: Purified and activated recombinant human p38α HTRF assay; format: biochemical; details: 1 nM p38α, 50 μM ATP, GST-ATF2 substrate, read-out: p38a IC50
Sequence of recombinant human p38α (Q16539 whole entry): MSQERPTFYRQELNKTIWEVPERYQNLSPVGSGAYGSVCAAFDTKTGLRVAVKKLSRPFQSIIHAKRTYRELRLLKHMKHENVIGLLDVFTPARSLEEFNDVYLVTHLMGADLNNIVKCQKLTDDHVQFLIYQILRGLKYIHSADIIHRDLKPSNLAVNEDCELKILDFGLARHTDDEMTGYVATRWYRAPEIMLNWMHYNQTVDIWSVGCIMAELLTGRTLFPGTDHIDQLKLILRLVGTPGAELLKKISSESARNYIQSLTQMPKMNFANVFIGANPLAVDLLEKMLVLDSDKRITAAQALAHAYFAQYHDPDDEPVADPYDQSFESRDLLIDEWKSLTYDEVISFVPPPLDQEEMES
Method: Purified and Activated Recombinant Human p38α Assay Kinase Reaction Buffer: […] HTRF Detection Buffer: […] Serial Dilution of Compounds: […] Columns 6 and 12 (HI controls and LO controls respectively) in the drug plate were reserved as controls and contained only DMSO. Kinase Reaction: […] See table below for actual concentrations. In the absence of substrate, the background was measured as LO control. […] Assay Reagent Concentrations: […] HTRF Detection: […] After 60 minutes incubation at room temperature, the assay plate was read in a Discovery Plate Reader. The wells were excited with coherent 320 nm light and the ratio of delayed ([…] post excitation) emissions at […] (native europium fluorescence) and 665 nm (europium fluorescence transferred to allophycocyanin-an index of substrate phosphorylation) was determined (Park et al, 1999). Data Analysis: […] Data (consisting of POC and inhibitor concentration in μM) was fitted to a 4-parameter equation ([…]))), where A is the minimum y (POC) value, B is the maximum y (POC), C is the x (compound concentration) at the point of inflection and D is the slope factor, using a Levenburg-Marquardt non-linear regression algorithm. The inhibition constant (Ki) of the inhibitor was estimated from the IC50 (compound concentration at the point of inflection C) using the Cheng-Prussof equation: […] All results were expressed as the mean±the standard error of the mean. Data acquisition and non-linear regression algorithms were performed using Activity Base v5.2 and XL-fit software v4.1 respectively. All data was archived using Activity Base v5.2 software.

[2] = tested on: TNF-α production by LPS-activated THP1 cells; assay: Lipopolysaccharide-activated THP1 cell TNF production assay; format: cell-based; details: Homo sapiens, read-out: IC50 in THP-1 cellular TNF production assay
Method: Lipopolysaccharide-Activated THP1 Cell TNF Production Assay
THP1 cells were resuspended in fresh THP1 media (RPMI 1640, 10% heat-inactivated FBS, 1×PGS, 1×NEAA, plus 30 μM βME) at a concentration of 1.5×10^6 cells per mL. One hundred microliters of cells per well were plated in a polystyrene 96-well tissue culture plate. 1.5 micrograms per mL of bacterial LPS was prepared in THP1 media and transferred to the first 11 columns of a 96-well polypropylene plate. Column 12 contained only THP1 media for the LO control. Compounds were dissolved in 100% DMSO and serially diluted 3 fold in a polypropylene 96-well microtiter plate (drug plate). Columns 6 and 12 were reserved as controls (HI controls and LO controls respectively) and contained only DMSO. 10 μL of LPS followed by one microliter of inhibitor compound from the drug plate was transferred to the cell plate. The treated cells were induced to synthesize and secrete TNF-α in a 37° C. humidified incubator with 5% CO2 for 3 hours. Fifty microliters of conditioned media was transferred to a 96-well MULTI-ARRAY™ 96-well small spot plate—custom coated with MAB610 containing 100 μL of 2× Read Buffer P supplemented with 0.34 nM AF210NA polyclonal Ab labeled with ruthenium (MSD—Sulfo-TAG™—NHS ester). After an overnight incubation at room temperature with shaking, the reaction was read on the Sector Imager™ 6000. […] The amount of secreted TNF-α in the presence of test compounds compared with that in the presence of DMSO vehicle alone (HI control) was calculated using the formula: % control (POC)=(cpd−average LO)/(average HI−averageLO)*100. Data (consisting of POC and inhibitor concentration in μM) was fitted to a 4-parameter equation (y=A+((B−A)/(1+((x/C)^D))), where A is the minimum y (POC) value, B is the maximum y (POC), C is the x (cpd concentration) at the point of inflection and D is the slope factor) using a Levenburg-Marquardt non-linear regression algorithm.

[3] = THP-1, THP1 cells, LPS, 3 hours

SMILES | IC50 ([1]; 18 h) | IC50 (recombinant human p38α) | IC50 ([2]; THP-1, 3 h) | IC50 ([1]; LPS 100 ng/mL, 18 hours) | IC50 [2, 3]
Cc1ccc(C(N)=O)cc1-c1cc2cnnc(-c3ccc(F)cc3F)c2n(C)c1=O [Example 2, 3-(8-(2,4-difluorophenyl)-1-methyl-2-oxo-1,2-dihydropyrido[3,2-d]pyridazin-3-yl)-4-methylbenzamide] | ≤ 1000 nM | 3 nM | ≤ 1000 nM |  | 
Cn1c(=O)c(-c2cc(C(=O)NC3CC3)ccc2Cl)cc2cnnc(-c3ccc(F)cc3F)c21 [Example 5, 4-chloro-N-cyclopropyl-3-(8-(2,4-difluorophenyl)-1-methyl-2-oxo-1,2-dihydropyrido[3,2-d]pyridazin-3-yl)benzamide] | ≤ 1000 nM | 1.6 nM | ≤ 1000 nM |  | 
Cc1ccc(C(=O)NC2CC2)cc1-c1cc2cnnc(-c3ccccc3C)c2n(C)c1=O [Example 6, N-cyclopropyl-4-methyl-3-(1-methyl-2-oxo-8-o-tolyl-1,2-dihydropyrido[3,2-d]pyridazin-3-yl)benzamide] | ≤ 1000 nM | 11.4 nM | ≤ 1000 nM |  | 
Cc1ccccc1-c1nncc2cc(-c3cc(C(=O)NC4CC4)cc(F)c3C)c(=O)n(C)c12 [Example 7, N-cyclopropyl-3-fluoro-4-methyl-5-(1-methyl-2-oxo-8-o-tolyl-1,2-dihydropyrido[3,2-d]pyridazin-3-yl)benzamide] | ≤ 1000 nM | 1.5 nM | ≤ 1000 nM |  | 
Cc1ccc(C(=O)NC2CC2)cc1-c1cc2cnnc(-c3ccccc3Cl)c2n(C)c1=O [Example 8, 3-(8-(2-chlorophenyl)-1-methyl-2-oxo-1,2-dihydropyrido[3,2-d]pyridazin-3-yl)-N-cyclopropyl-4-methylbenzamide] | ≤ 1000 nM | 1.6 nM | ≤ 1000 nM |  | 
Cc1ccc(C(=O)NC2CC2)cc1-c1cc2cnnc(-c3ccc(C(F)(F)F)cc3F)c2n(C)c1=O [Example 9, N-cyclopropyl-3-(8-(2-fluoro-4-(trifluoromethyl)phenyl)-1-methyl-2-oxo-1,2-dihydropyrido[3,2-d]pyridazin-3-yl)-4-methylbenzamide] |  | 2 nM |  | ≤ 1000 nM | ≤ 1000 nM
Cc1ccc(C(=O)NC2CC2)cc1-c1cc2cnnc(-c3ccccc3C(F)(F)F)c2n(C)c1=O [Example 10, N-cyclopropyl-4-methyl-3-(1-methyl-2-oxo-8-(2-(trifluoromethyl)phenyl)-1,2-dihydropyrido[3,2-d]pyridazin-3-yl)benzamide] |  | 2.9 nM |  | ≤ 1000 nM | ≤ 1000 nM
Cc1c(F)cc(C(=O)NC2CC2)cc1-c1cc2cnnc(-c3ccccc3C(F)(F)F)c2n(C)c1=O [Example 11, N-cyclopropyl-3-fluoro-4-methyl-5-(1-methyl-2-oxo-8-(2-(trifluoromethyl)phenyl)-1,2-dihydropyrido[3,2-d]pyridazin-3-yl)benzamide] |  | 2.4 nM |  | ≤ 1000 nM | ≤ 1000 nM
Cc1ccc(C(=O)NC2CC2)cc1-c1cc2cnnc(-c3ccc(F)cc3C)c2n(C)c1=O [Example 12, N-cyclopropyl-3-(8-(4-fluoro-2-methylphenyl)-1-methyl-2-oxo-1,2-dihydropyrido[3,2-d]pyridazin-3-yl)-4-methylbenzamide] |  | 2.5 nM |  | ≤ 1000 nM | ≤ 1000 nM
Cc1ccc(C(=O)NC2CC2)cc1-c1cc2cnnc(-c3ccc(F)cc3Cl)c2n(C)c1=O [Example 13, N-cyclopropyl-3-(8-(2-chloro-4-fluorophenyl)-1-methyl-2-oxo-1,2-dihydropyrido[3,2-d]pyridazin-3-yl)-4-methylbenzamide] |  | 2.8 nM |  | ≤ 1000 nM | ≤ 1000 nM
Cc1cc(F)ccc1-c1nncc2cc(-c3cc(C(=O)NC4CC4)cc(F)c3C)c(=O)n(C)c12 [Example 16, N-cyclopropyl-3-fluoro-5-(8-(4-fluoro-2-methylphenyl)-1-methyl-2-oxo-1,2-dihydropyrido[2,3-d]pyridazin-3-yl)-4-methylbenzamide] |  | 3 nM |  | ≤ 1000 nM | ≤ 1000 nM
Cc1c(F)cc(C(=O)NC2CC2)cc1-c1cc2cnnc(-c3ccc(F)cc3Cl)c2n(C)c1=O [Example 17, 3-(8-(2-chloro-4-fluorophenyl)-1-methyl-2-oxo-1,2-dihydropyrido[2,3-d]pyridazin-3-yl)-N-cyclopropyl-5-fluoro-4-methylbenzamide] |  | 1.8 nM |  | ≤ 1000 nM | ≤ 1000 nM
Cc1c(F)cc(C(=O)NC2CC2)cc1-c1cc2cnnc(-c3cc(F)ccc3Cl)c2n(C)c1=O [Example 19, 3-(8-(2-chloro-5-fluorophenyl)-1-methyl-2-oxo-1,2-dihydropyrido[2,3-d]pyridazin-3-yl)-N-cyclopropyl-5-fluoro-4-methylbenzamide] |  | 1.6 nM |  | ≤ 1000 nM | ≤ 1000 nM
Cc1ccc(C(=O)Nc2ccon2)cc1-c1cc2cnnc(-c3ccc(F)cc3Cl)c2n(C)c1=O [Example 21, 3-(8-(2-chloro-4-fluorophenyl)-1-methyl-2-oxo-1,2-dihydropyrido[2,3-d]pyridazin-3-yl)-N-3-isoxazolyl-4-methylbenzamide] |  | 0.8 nM |  | ≤ 1000 nM | ≤ 1000 nM
CCn1c(=O)c(-c2cc(C(=O)NC3CC3)cc(F)c2C)cc2cnnc(-c3ccc(F)cc3F)c21 [Example 22, N-cyclopropyl-3-(8-(2,4-difluorophenyl)-1-ethyl-2-oxo-1,2-dihydropyrido[2,3-d]pyridazin-3-yl)-5-fluoro-4-methylbenzamide] |  | 1.3 nM |  | ≤ 1000 nM | ≤ 1000 nM
CCn1c(=O)c(-c2cc(C(=O)NC3CC3)ccc2C)cc2cnnc(-c3ccc(F)cc3F)c21 [Example 23, N-cyclopropyl-3-(8-(2,4-difluorophenyl)-1-ethyl-2-oxo-1,2-dihydropyrido[2,3-d]pyridazin-3-yl)-4-methylbenzamide] |  | 1.5 nM |  | ≤ 1000 nM | ≤ 1000 nM
